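Each compound was tested at five concentrations against cells in 96-well plates for 48 hours. GI50 = concentration required for 50% inhibition of growth. At the TGI there is no net growth.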 Where a SMILES comes first, the peptide text is derived from it. [ ]: non-standard residue; d: D form. Ac5c = NC1(C(=O)O)CCCC1

Common to all, as to assay: NCI anticancer screen, dose series, 48 h
For assay [1], the system named is KM12 colon.
Assay [2] deals with SF-295 CNS.
The test system of assay [3] is NCI-H522 lung.
The subject of assay [4] is DU-145 prostate.
The test system of assay [5] is BT-549 breast.
The test system of assay [6] is T-47D breast.
Assay [7] concerns LOX IMVI melanoma.
Assay [8] deals with SW-620 colon.
The test system of assay [9] is OVCAR-3 ovarian.
Assay [10] has as its system SF-539 CNS.

With `CC(=O)c1c(C)[nH]c(-c2nc3ccc(N4CCN(C)CC4)cc3[nH]2)c1-c1ccc(OCC2CCOCC2)cc1`, the GI50 in assay [1] was 0.924 µM; in [2], 2.67 µM; in assay [3], 0.548 µM; in assay [4], 5.09 µM; in assay [5], 3.4 µM; in assay [6] it was 0.445 µM. The GI50 in assay [7] was 0.318 µM; in assay [8] it was 1.68 µM; in assay [9] it was 0.889 µM; in assay [10] it was 1.24 µM. In addition, the TGI turned out to be 14.6 µM in [1]; 15.3 µM in assay [2]; 13.8 µM in assay [3]; 24.8 µM in assay [4]; 18 µM in [5]; 20.6 µM in assay [6]. For the same compound, the TGI in [7] is 1.45 µM; in assay [8], 18 µM; in [9], 14 µM; in [10] it was 12.3 µM.

For `O=C(O[C@H]1CN[C@H](C#Cc2cc3ncnc(Nc4ccc5c(ccn5Cc5cc(F)ccc5F)c4)c3s2)C1)N1CCOCC1`, the GI50 is 4.57 µM in assay [1]; 6.02 µM in [2]; 0.147 µM in assay [3]; 2.17 µM in [4]; 4.32 µM in [5]; 0.206 µM in assay [6]. In addition, the GI50 was 3.5 µM in [7], 5.16 µM in assay [8], 2.86 µM in [9] and 3.42 µM in assay [10]. Besides, the TGI in assay [1] amounted to 9.25 µM; in [2], 17.7 µM; in [3], 4.1 µM; in assay [4], 5.52 µM; in assay [5], 11 µM; in assay [6], 7.1 µM. For the same compound, the TGI worked out at 9.28 µM in [7], 15.1 µM in [8], 6.55 µM in [9] and 7.83 µM in [10].

Consider `CC(=O)CC(=O)Nc1ccc2ccccc2c1`, for which the TGI in [1], in [2], in assay [3], in assay [4], in assay [5] and in assay [6] was over 100 µM in each case. The TGI in assay [7], in assay [8], in assay [9] and in [10] was over 100 µM in each case.

`NC1(C(=O)NC2(C(=O)O)CCCC2)CCCC1` (H-[Ac5c]-[Ac5c]-OH): the TGI in assay [1], in [2], in assay [3], in assay [4], in assay [5] and in [6] was over 100 µM throughout. The TGI in [7], in [8], in assay [9] and in assay [10] was over 100 µM each time.

With `COc1cc(C(=O)/C(C)=C/c2c[nH]c3ccccc23)cc(OC)c1OC`, the GI50 in assay [1] was 0.00359 µM; in assay [2], 0.00298 µM; in [3] it was 0.00282 µM; in [4] it was 0.00383 µM; in [5] it was 0.00583 µM; in [6] it was 2.46 µM. The GI50 in assay [7] is 0.00468 µM; in assay [8] it was 0.00416 µM; in [9] it was 0.00334 µM; in [10] it was 0.0028 µM. Further, the TGI in assay [2] is 1.61 µM; in assay [3], 0.00728 µM; in assay [4], over 100 µM; in [6], over 100 µM; in assay [7], 11.5 µM; in assay [8], over 100 µM. For the same compound, the values for the TGI in assay [9] and in [10] were 0.0107 µM and 0.0129 µM, respectively.

Consider `COc1cc(Nc2nccc(Nc3ccc4c(C)[nH]nc4c3)n2)cc(OC)c1OC`, for which the GI50 is 0.68 µM in assay [1]; 2.66 µM in assay [2]; 1.52 µM in [3]; 2.44 µM in assay [4]; 3.3 µM in assay [5]; 1.44 µM in assay [6]. Besides, the GI50 was 0.963 µM in [7], 2.71 µM in assay [8], 2.5 µM in [9] and 1.72 µM in assay [10]. For the same compound, the TGI in assay [1] came to 3.06 µM; in assay [2], 9.77 µM; in assay [3], 7.18 µM; in assay [4], 7.43 µM; in assay [5], 11 µM; in assay [6] it was 7.46 µM. In addition, the TGI in assay [7] came to 3.98 µM; in assay [8], 15.1 µM; in [9], 7.54 µM; in [10], 6.11 µM.

As for `COc1ccc(CN(C)c2ccc(CO)c(Cl)c2)cc1`, the GI50 in assay [1] is 24.6 µM; in assay [2], 3.35 µM; in assay [3], 22.4 µM; in assay [4], 34.2 µM; in assay [5], 19.8 µM; in assay [6], 0.513 µM. The GI50 is 27.9 µM in assay [7], 4.53 µM in assay [8], 2.93 µM in assay [9] and 47.7 µM in [10]. The TGI was over 92.8 µM in [1]; over 100 µM in assay [2]; over 80.7 µM in assay [3]; over 100 µM in assay [4]; 73.7 µM in assay [5]; 3.82 µM in assay [6]. Moreover, the TGI is over 100 µM in assay [7], over 100 µM in [8], 12.8 µM in assay [9] and over 100 µM in [10].

For the compound `CC[C@H](NC(=O)[C@H](C)NC)C(=O)N1C[C@@H](O)C[C@H]1Cc1c(-c2[nH]c3cc(F)ccc3c2C[C@@H]2C[C@H](O)CN2C(=O)[C@H](CC)NC(=O)[C@H](C)NC)[nH]c2cc(F)ccc12`, the GI50 in assay [1] was over 100 µM; in assay [2], over 100 µM; in [3] it was 8.21 µM; in assay [4], over 100 µM; in [5], 0.569 µM; in [6] it was over 100 µM. In addition, the GI50 in [7] is over 59.6 µM; in assay [8], over 100 µM; in [9], over 100 µM; in assay [10], under 0.01 µM. For the same compound, the TGI was over 100 µM in assay [1]; over 100 µM in assay [2]; 35.1 µM in assay [3]; over 100 µM in [4]; over 41.8 µM in assay [5]; over 100 µM in assay [6]. Also, the TGI was over 100 µM in assay [7], over 100 µM in assay [8], over 100 µM in assay [9] and 0.146 µM in assay [10].
